Experimental data reported in patent US7332489B2, “Methods and compositions of novel triazine compounds” (Reddy US Therapeutics, Inc., priority 2003, dated 2008).
Like-named read-outs stand apart in the source and are kept apart here.

System: TNF-α induced IL-6
Experiment: TNF-α-induced IL-6 production determined by IL-6 ELISA
Type: cell-based
Settings: for activity at 10 µM: class = % of control IL6 production
Protocol: Human aortic endothelial cells (HAEC, Clonetics) were cultured according to manufacturer in growth medium (Clonetics): basal medium containing human epidermal growth factor, hydrocortisone, vascular endothelial growth factor, heparin binding growth factor-B, long R3-insulin-like growth factor-1, ascorbic acid, gentamicin/amphotericin and 5% FBS. These cell were allowed to reach at least 90% confluency before subjected to experimental treatments. […] Tumor necrosis factor α was from R&D Systems.
All treatments, compound-added and controls were carried out in serum free media containing 0.2% albumin. Media from all conditions were collected and used for IL-6 ELISA.
IL-6 ELISA was carried out using human IL-6 DuoSet ELISA development kit as described by manufacturer (R&D Systems). Mouse anti-human Il-6 was used as the capture antibody (2 ug/ml) and biotinylated goat anti-human IL-6 (200 ng/ml) was used as the detection antibody. Culture media were incubated with capture antibody (in 96 well) for 2 h at room temperature. Wells were washed three times with wash buffer (0.05% tween-20 in phosphate buffered saline (PBS) pH 7.4) followed by incubation with detection antibody for 2 h at room temperature. Following three washes wells were incubated with Streptavidin-HRP for 20 min. Color development was read at 450 nm in a Microplate reader.

[1] = Homo sapiens, 24 h, Table 5, first part, read-out: Inhibition of TNF-induced IL6 production
[2] = Homo sapiens, 24 h, Table 5, second part, column 1, read-out: Inhibition of TNF-induced IL6, production
[3] = Homo sapiens, 24 h, Table 7, first part, read-out: Inhibition of TNF-induced IL6 production

## COc1ccc(Nc2nc(NC3CCCCCC3)nc(N3CCN(C(C)=O)CC3)n2)cc1F [Compound 88, 6-(4-acetyl-1-piperazinyl)-N^2-cycloheptyl-N^4-(3-fluoro-4-methoxyphenyl)-1,3,5-triazine-2,4-diamine]
[1]
  activity at 10 µM: 0 to 25%

## CCN1CCC[C@@H]1CNc1nc(NC2CCCCCC2)nc(N(CC#N)c2ccccc2)n1 [Compound 144, ({4-cycloheptylamino-6-[((R)-1-ethyl-pyrrolidin-2-ylmethyl)-amino]-1,3,5-triazin-2-yl}-phenyl-amino)-acetonitrile]
[1]
  activity at 10 µM: 0 to 25%

## COc1ccc(Nc2nc(NCCN3CCCCC3)nc(NC3CCCCCC3)n2)cc1F [Compound 96, N^2-cycloheptyl-N^4-(3-fluoro-4-methoxyphenyl)-N^6-[2-(1-piperidinyl)ethyl]-1,3,5-triazine-2,4,6-triamine]
[1]
  activity at 10 µM: 0 to 25%

## CCN1CCCC1CNc1nc(NCc2ccco2)nc(Nc2ccc(OC)c(F)c2)n1 (stereo not drawn) [Compound 66, N^2-[(1-ethyl-2-pyrrolidinyl)methyl]-N^4-(3-fluoro-4-methoxyphenyl)-N^6-(2-furylmethyl)-1,3,5-triazine-2,4,6-triamine]
[1]
  activity at 10 µM: 0 to 25%
[2]
  activity at 10 µM: 0 to 25%

## CCN1CCCC1CNc1nc(Nc2ccccc2C)nc(NC2CCCCCC2)n1 (stereo not drawn) [Compound 35, N^2-cycloheptyl-N^4-[(1-ethyl-2-pyrrolidinyl)methyl]-N^6-(2-methylphenyl)-1,3,5-triazine-2,4,6-triamine]
[1]
  activity at 10 µM: 25 to 50%
[2]
  activity at 10 µM: 0 to 25%

## CN1CCC(N(C)c2nc(NCCC3OCCO3)nc(Nc3ccc4ccccc4c3)n2)CC1 [Compound 179, N-(2-[1,3]Dioxolan-2-yl-ethyl)-N′-methyl-N′-(1-meth-yl-piperidin-4-yl)-N″-naphthalen-2-yl-[1,3,5]tri-azine-2,4,6-triamine]
Homo sapiens, 24 h, read-out: Inhibition of TNF-induced IL6 production, Table 7, first part
  inhibition at 10 µM: 65 to 85%
Homo sapiens, 24 h, read-out: Inhibition of TNF-induced IL6 production, Table 7, second part, column 1
  inhibition at 10 µM: 50 to 65%

## CCN1CCC[C@@H]1CNc1nc(NCC2CCCCC2)nc(Nc2ccc(OC)c(F)c2)n1 [Compound 142, N^2-cyclohexylmethyl-N^4-((R)-1-ethyl-pyrrolidin-2-ylmethyl)-N^6-(3-fluoro-4-methoxyphenyl)-1,3,5-triazine-2,4,6-triamine]
HAEC, 10 uM compound, TNF stimulation = 100%
  % IL6 production compare to TNF stimulation of IL6 (100%), Compds tested @ 10 uM HAEC, IL6: 21.62%
[1]
  activity at 10 µM: 0 to 25%

## COc1ccc(Nc2nc(NC3CCCCCC3)nc(N3CCOCC3)n2)cc1 [Compound 177, N-Cycloheptyl-N′-(4-methoxy-phenyl)-6-mor-pholin-4-yl-[1,3,5]triazine-2,4-diamine]
[3]
  inhibition at 10 µM: 85 to 100%
Homo sapiens, 24 h, Table 7, second part, column 1, read-out: Inhibition of TNF-induced IL6 production
  inhibition at 10 µM: 65 to 85%

## CCN1CCCC1CNc1nc(Nc2ccc(C#N)cc2)nc(NC2CCCCCC2)n1 (stereo not drawn) [Compound 11, 4-[(4-(cycloheptylamino)-6-{[(1-ethyl-2-pyrrolidinyl)methyl]amino}-1,3,5-triazin-2-yl)-amino]benzonitrile]
[2]
  activity at 10 µM: 0 to 25%

## COc1ccc(Nc2nc(NC3CCCCCC3)nc(N3CCOCC3)n2)cc1F [Compound 175, N-Cycloheptyl-N′-(3-fluoro-4-methoxy-phenyl)-6-morpholin-4-yl-[1,3,5]triazine-2,4-di-amine]
[3]
  inhibition at 10 µM: 85 to 100%

## CCN1CCCC1CNc1nc(NC2CCCCCC2)nc(N(C)c2ccc(F)cc2F)n1 (stereo not drawn) [Compound 43, N^2-cycloheptyl-N^4-(2,4-difluorophenyl)-N^6-[(1-ethyl-2-pyrrolidinyl)methyl]-N^4-methyl-1,3,5-triazine-2,4,6-triamine]
[2]
  activity at 10 µM: 0 to 25%

## COC[C@@H]1CCCN1c1nc(Nc2ccc(OC)c(F)c2)nc(NC2CCCCCC2)n1 [Compound 86, N^2-cycloheptyl-N^4-(3-fluoro-4-methoxyphenyl)-6-[(2S)-2-(methoxymethyl)-1-pyrrolidinyl]-1,3,5-triazine-2,4-diamine]
[1]
  activity at 10 µM: 0 to 25%

## CCN1CCCC1CNc1nc(NC2CCCCCC2)nc(N(C)c2cccc(Cl)c2)n1 (stereo not drawn) [Compound 45, N^2-(3-chlorophenyl)-N^4-cycloheptyl-N^6-[(1-ethyl-2-pyrrolidinyl)methyl]-N^2-methyl-1,3,5-triazine-2,4,6-triamine]
[2]
  activity at 10 µM: 0 to 25%

## CN(c1nc(Nc2ccc(O)cc2)nc(NC2CCCCCC2)n1)C1CCNCC1
Homo sapiens, read-out: Inflammation Data, inhibition at 5 uM
  inhibition at 5 µM: 50%
human, 24 h, 5 µM
  Inflammation Data, cell death at 5 uM: 20%
human, 24 h, 10 µM
  Inflammation Data, cell death at 10 uM: total cell death

## COc1ccc(Nc2nc(NCCCn3ccnc3)nc(NC3CCCCCC3)n2)cc1F [Compound 100, N^2-cycloheptyl-N^4-(3-fluoro-4-methoxyphenyl)-N^6-[3-(1H-imidazol-1-yl)propyl]-1,3,5-triazine-2,4,6-triamine]
[2]
  activity at 10 µM: 0 to 25%

## CCN1CCCC1CNc1nc(Nc2ccc(NC(C)=O)cc2)nc(NC2CCCCCC2)n1 (stereo not drawn) [Compound 29, N-{4-[(4-(cycloheptylamino)-6-{[(1-ethyl-2-pyrrolidinyl)methyl]amino}-1,3,5-triazin-2-yl)-amino]phenyl}acetamide]
[1]
  activity at 10 µM: 0 to 25%
[2]
  activity at 10 µM: 0 to 25%

## CCNc1nc(Nc2ccc(OC)c(F)c2)nc(NC2CCCCCC2)n1 [Compound 76, N^2-cycloheptyl-N^4-ethyl-N^6-(3-fluoro-4-methoxyphenyl)-1,3,5-triazine-2,4,6-triamine]
[1]
  activity at 10 µM: 0 to 25%

## CCN(CC)c1ccc(Nc2nc(NCC3CCCN3CC)nc(NC3CCCCCC3)n2)cc1Cl (stereo not drawn) [Compound 26, N^2-[3-chloro-4-(diethylamino)phenyl]-N^4-cycloheptyl-N^6-[(1-ethyl-2-pyrrolidinyl)methyl]-1,3,5-triazine-2,4,6-triamine]
HAEC, 10 uM compound, seen in the TNF IL6 test
  cells floating: > 50%
[1]
  activity at 10 µM: 0 to 25%

## CCN1CCCC1CNc1nc(Nc2ccc(OC)c(F)c2)nc(N2CCCCCC2)n1 (stereo not drawn) [Compound 58, N^2-[(1-ethyl-2-pyrrolidinyl)methyl]-N^4-(3-fluoro-4-methoxyphenyl)-N^6-hexahydro-1H-azepin-1-yl-1,3,5-triazine-2,4-diamine]
[1]
  activity at 10 µM: 0 to 25%
[2]
  activity at 10 µM: 25 to 50%

## COc1ccc(Nc2nc(NC3CCCCCC3)nc(N3CCN(C)CC3)n2)cc1F [Compound 87, N^2-cycloheptyl-N^4-(3-fluoro-4-methoxyphenyl)-6-(4-methyl-1-piperazinyl)-1,3,5-triazine-2,4-diamine]
[2]
  activity at 10 µM: 0 to 25%

## CCN1CCCC1CNc1nc(NCC2CCCCC2)nc(Nc2ccc(OC)c(F)c2)n1 (stereo not drawn) [Compound 65, N^2-(cyclohexylmethyl)-N^4-[(1-ethyl-2-pyrrolidinyl)methyl]-N^6-(3-fluoro-4-methoxyphenyl)-1,3,5-triazine-2,4,6-triamine]
[1]
  activity at 10 µM: 0 to 25%
[2]
  activity at 10 µM: 25 to 50%

## COc1ccc(Nc2nc(NC3CCCCCC3)nc(NC3CCNCC3)n2)cc1
5 uM
  Inflammation Data, cell death at 5 uM: 20%
10 uM
  Inflammation Data, cell death at 10 uM: > 50%

## CCN1CCCC1CNc1nc(Nc2ccc(OC)c(F)c2)nc(N2CCN(CC(=O)N3CCCC3)CC2)n1 (stereo not drawn) [Compound 69, N^2-[(1-ethyl-2-pyrrolidinyl)methyl]-N^4-(3-fluoro-4-methoxyphenyl)-N^6-{4-[2-oxo-2-(1-pyrrolidinyl)ethyl]-1-piperazinyl}-1,3,5-triazine-2,4-diamine]
[1]
  activity at 10 µM: 0 to 25%
[2]
  activity at 10 µM: 0 to 25%

## CCN1CCCC1CNc1nc(Nc2ccc(OC)c(F)c2)nc(N2CCN(c3ccccn3)CC2)n1 (stereo not drawn) [Compound 73, N^2-[(1-ethyl-2-pyrrolidinyl)methyl]-N^4-(3-fluoro-4-methoxyphenyl)-N^6-[4-(2-pyridinyl)-1-piperazinyl]-1,3,5-triazine-2,4-diamine]
[1]
  activity at 10 µM: 0 to 25%
[2]
  activity at 10 µM: 0 to 25%

## COc1ccc(Nc2nc(NC3CCCCCC3)nc(OCc3cccc(C)n3)n2)cc1Cl
Homo sapiens, 10 uM, read-out: Inflammation Data, inhibition at 10 uM
  inhibition at 10 µM: 60%
